The values below come from PMC6061696 (2018).

In experiment [1] the test system is NSR U14C mutant (C14+) (RNA, riboswitch, C14 protonated at N3 in the folded complex (transcribed as ordinary C)) GGCUGCUUGUCCUCUAAUGGUCCAGUC
In words: 1H NMR imino spectra. Conditions: no added monovalent ions; complex also in K+ buffers; 50 mM BisTris pH 6.3, 10 °C; ligand in slight excess.

For experiment [2], the system named is neomycin sensing riboswitch (NSR), wild-type (U14) (RNA, riboswitch) GGCUGCUUGUCCUUUAAUGGUCCAGUC
In words: 1H NMR imino spectra. Conditions: no added monovalent ions; complex also in K+ buffers; 50 mM BisTris pH 6.3, 10 °C; ligand in slight excess; U10, U21 signals remain at 40 °C.

On to `NC[C@H]1O[C@H](O[C@H]2[C@H](O[C@@H]3O[C@H](CO)[C@@H](O)[C@H]3O)[C@@H](O)[C@H](N)C[C@@H]2N)[C@H](N)[C@@H](O)[C@@H]1O`, for which the binding result in experiment [1] and in experiment [2] was “yes” each time.
